Results taken from patent EP4509145A1, “PSMA THERANOSTIC COMPOUNDS ASSEMBLED WITH TETRAZINE-TRANS-CYCLOOCTENE LIGATION” (University of Copenhagen, priority 2023, dated 2025).
Where two headings read alike, the source gives them in different places. One block for each compound: values may come before it.

Assays:
LNCaP cells = assay: internalization assay (surface binding and internalization, with and without 2-PMPA block); assay type: cell-based; details: for Cell surface / Internalized: n = 4; for Cell surface blocked / Internalized blocked: with 2-PMPA 500 µM/well
Description: Poly-L-Lysine (300 µL of a 0.01% w/v in H2O) is added to each well of a 24-well plate (Greiner Bio). The plate is left at room temperature for 20-30 minutes. Afterwards, the poly-L-lysine solution is removed, and the wells washed with 500 µL of PBS. Afterwards, 1 mL of LNCaP cells suspension is placed in each well to obtain 10^5 cells/well. The 24-well plates are left in the incubator overnight until the start of the internalisation experiment. Subsequently, the previously plated cells were incubated at 37 °C with the selected ^18 F-labelled PSMA derivative in 250 µL growth medium for 45 min (c = 32 nM). For the determination of specific uptake, 2-PMPA was added into half of the wells in an excess concentration of 500 µM/well. After incubation, cellular uptake was interrupted by removing the medium and washing the cells with ice-cold PBS (3 × 1 mL). The surface bound radioactivity was removed by washing with 50 mM glycine (pH 2.8, 2 × 500 µL). Finally, the internalized fraction was determined by lysis of the cells with 0.3 M NaOH (1 × 500 µL). Fractions collected from the surface bound activity and lysates were collected and measured in a gamma counter. All counts were normalized to the starting activity and specific surface binding as well as specific internalization were determined by subtracting the non-specific binding obtained from the wells treated with 2-PMPA. Results were calculated and expressed as %AA/10^5 cells (% applied activity/105 cells, n = 4). [^68Ga]-PSMA617 was selected as a reference to compare internalization values. The experiment was conducted two times on different compounds. PSMA-617 was used as a reference and internal control for both experiments. […] The higher internalization could have a big impact on the therapeutic effect of such molecules.

PSMA = target: T1, PSMA (Rattus norvegicus, UniProt P70627); assay: in vitro autoradiography competition assay on rat brain slices against [^111In]In-PSMA-617; assay type: binding
T1 construct: tissue Taconic Biosciences (rats); host or cells: rat brain, sagittal slices containing midbrain
T1 sequence (P70627 whole entry): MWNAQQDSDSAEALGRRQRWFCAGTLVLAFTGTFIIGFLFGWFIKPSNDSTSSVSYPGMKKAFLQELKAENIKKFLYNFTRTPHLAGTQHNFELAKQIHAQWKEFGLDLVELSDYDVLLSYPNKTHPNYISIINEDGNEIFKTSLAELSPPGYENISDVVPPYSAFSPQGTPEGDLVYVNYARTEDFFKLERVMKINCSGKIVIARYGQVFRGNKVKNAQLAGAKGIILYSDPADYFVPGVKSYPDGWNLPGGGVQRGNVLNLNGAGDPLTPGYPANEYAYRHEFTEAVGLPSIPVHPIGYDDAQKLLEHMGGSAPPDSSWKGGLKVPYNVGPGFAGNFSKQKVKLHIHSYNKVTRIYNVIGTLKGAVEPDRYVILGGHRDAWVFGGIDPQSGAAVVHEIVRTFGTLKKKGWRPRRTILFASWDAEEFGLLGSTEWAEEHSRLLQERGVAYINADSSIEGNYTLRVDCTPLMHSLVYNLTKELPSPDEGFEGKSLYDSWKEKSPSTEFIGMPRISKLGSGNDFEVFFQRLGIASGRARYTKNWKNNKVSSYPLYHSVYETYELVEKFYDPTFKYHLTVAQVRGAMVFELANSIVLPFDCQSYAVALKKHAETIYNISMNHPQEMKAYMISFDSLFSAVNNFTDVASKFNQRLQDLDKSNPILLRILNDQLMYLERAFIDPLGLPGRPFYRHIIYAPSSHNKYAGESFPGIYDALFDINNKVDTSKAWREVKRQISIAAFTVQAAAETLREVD
Description: This method provided [^111In]-PSMA-617 in >95% radiochemical yield, as determined by reverse-phase HPLC.
Rat brain slices were obtained from female Sprague-Dawley rats (weight~250g; Taconic Biosciences). The rats were sacrificed by decapitation, brains were extracted, frozen at -80 °C and stored at the same temperature. To prepare slices for autoradiography, brains were cut into halves along the sagittal symmetry plane. Each half was mounted, lateral side up, on the cryostat sample holder pretreated by Tissue-Tek OCT compound and fixed by freezing in the cryostat. […]
For competition assay, the slides were incubated with 2 nM [^111In]In-PSMA-617 and increasing concentrations (0.1-30 nM) of investigated PSMA derivatives for the same amount of time in the same assay buffer. Non-specific binding was determined by adding 5 µM 2-(phosphonomethyl)pentanedioic acid (PMPA) to [^111In]In-PSMA-617 solutions. […]
The screens were then read by a Cyclone Plus storage phosphor system (Packard Instruments Co). Quantification of readings was done with Optiquant software (version 3.00, Packard Instruments Co). Namely, elliptic regions of interest (ROIs) encompassing the midbrain and cerebellar nuclei were drawn inside the brain slice images, while circular ROIs were drawn around calibration curve spots, and average exposure was calculated for both ROI categories. […]

[1] = in vivo PET imaging in rats of [^18F]-labeled PSMA derivatives; details: healthy rats, i.v., 90-min PET acquisition (Figure 15)
Description: Long-Evans female rats weighing 200 - 300 g (Charles River, Calco, Italy), were housed in a cage of 2-3 rats per cage and kept in a climate-controlled facility with a 12-hr light/dark cycle. The cages had environmental enrichment (nest box, biting stick). All rats were fed ad libitum with commercial breeding diet (1310 FORTI-Avlsfoder, Brogaarden, Altromin International) and had free access to water. All the experiments were performed in accordance with the European Commission's Directive 2010/63/EU, FELASA and ARRIVE guidelines for animal research and, with approval from The Danish Council for Animal Ethics (license numbers 2017-15-0201-01283 and 2017-15-0201-01375) together with the Department of Experimental Medicine, University of Copenhagen.
The scans were performed on the Siemens HRRT (High-Resolution Research Tomography) (CPS Innovations/Siemens, Malvern, PA, USA). On the day of experiment, the rats were weighed and then transported to the scanner at least 2 h before the scan. Anesthesia was induced using 3% isoflurane in oxygen flow. All rats were placed in a 2 × 2 custom made rat holder, enabling simultaneous scanning of four rats 17-19. While in the custom-made rat holder, the rats were kept under anesthesia with a constant flow of isoflurane (-2% isoflurane in oxygen). […]

[2] = first experiment, LNCaP, 37 °C, 45 min, c = 32 nM
[3] = second experiment ([^68Ga] compounds), LNCaP, 37 °C, 45 min, c = 32 nM
[4] = second experiment ([^68Ga] compounds)

SMILES: N=C(N)NCCCC(NC(=O)CN1C(=O)c2cc3nc4c(nc3cc2C1=O)CCc1c(cnnc1-c1ccc(OCC[18F])cc1)CC4)C(=O)NC(CCCNC(=N)N)C(=O)NC(CCCNC(=N)N)C(=O)NCC1CCC(C(=O)NC(Cc2ccc3ccccc3c2)C(=O)NCCCCC(NC(=O)NC(CCC(=O)O)C(=O)O)C(=O)O)CC1 (centres unmarked) [[^18F]40, PSMA-3Arg-NH-T4CO-FTz]
Cell surface (LNCaP cells; [2]): 5.15 ± 0.87 %AA/10^5 cells | Internalized (LNCaP cells; [2]): 4.53 ± 0.55 %AA/10^5 cells | Cell surface blocked (LNCaP cells; [2]): 4.70 ± 1.05 %AA/10^5 cells | Internalized blocked (LNCaP cells; [2]): 4.10 ± 0.65 %AA/10^5 cells | Ki (PSMA; read-out: Affinity (Ki), competition with 2 nM [^111In]In-PSMA-617, 1.5 h, Ki from IC50 by Cheng-Prusoff, mean ± SD, number of determinations in parentheses): 47.5 nM

Ki (PSMA; competition with 2 nM [^111In]In-PSMA-617, 1.5 h, Ki from IC50 by Cheng-Prusoff, mean ± SD, number of determinations in parentheses, read-out: Affinity (Ki)): 3.1 ± 0.28 nM
SMILES: N=C(N)NCCCC(NC(=O)CN1C(=O)c2cc3nc4c(nc3cc2C1=O)CCc1c(cnnc1-c1ccc(OCC[18F])cc1)CC4)C(=O)NC(CCC(=O)O)C(=O)NC(CCCNC(=N)N)C(=O)NC(CCC(=O)O)C(=O)NC(CCCNC(=N)N)C(=O)NC(CCC(=O)O)C(=O)NCC1CCC(C(=O)NC(Cc2ccc3ccccc3c2)C(=O)NCCCCC(NC(=O)NC(CCC(=O)O)C(=O)O)C(=O)O)CC1 (centres unmarked) [[^18F]30, PSMA-NH-AAAAAA-T4CO-FTz]
Cell surface (LNCaP cells; [2]): 0.64 ± 0.10 %AA/10^5 cells | Internalized (LNCaP cells; [2]): 0.54 ± 0.06 %AA/10^5 cells | Cell surface blocked (LNCaP cells; [2]): 0.08 ± 0.01 %AA/10^5 cells | Internalized blocked (LNCaP cells; [2]): 0.07 ± 0.01 %AA/10^5 cells

SMILES: O=C(O)CC[C@H](NC(=O)N[C@@H](CCCCNC(=O)[C@H](Cc1ccc2ccccc2c1)NC(=O)[C@H]1CC[C@H](CNC(=O)CN2CCN(CC(=O)O)CCN(CC(=O)O)CCN(CC(=O)O)CC2)CC1)C(=O)O)C(=O)O [[^68Ga]-PSMA-617, vipivotide tetraxetan, metal not drawn, reference compound]
Cell surface (LNCaP cells; [2]): 0.36 ± 0.03 %AA/10^5 cells | Internalized (LNCaP cells; [2]): 0.27± 002 %AA/10^5 cells | Cell surface blocked (LNCaP cells; [2]): 0.03± 0.01 %AA/10^5 cells | Internalized blocked (LNCaP cells; [2]): 0.03 ± 0.01 %AA/10^5 cells | Cell surface (LNCaP cells; [3]): 0.36 ± 0.03 %AA/10^5 cells | Internalized (LNCaP cells; [3]): 0.13± 001 %AA/10^5 cells | Cell surface blocked (LNCaP cells; [4]): 0.03± 0.01 %AA/10^5 cells | Internalized blocked (LNCaP cells; [4]): 0.02 ± 0.01 %AA/10^5 cells

SMILES: O=C(O)CC[C@H](NC(=O)N[C@@H](CCCCNC(=O)[C@H](Cc1ccc2ccccc2c1)NC(=O)[C@H]1CC[C@H](CNC(=O)CN2C(=O)c3cc4nc5c(nc4cc3C2=O)CCc2c(cnnc2-c2ccc(OCCF)cc2)CC5)CC1)C(=O)O)C(=O)O [[^18F]16, PSMA-NH-T4CO-FTz]
Cell surface (LNCaP cells; [2]): 0.36 ± 0.03 %AA/10^5 cells | Internalized (LNCaP cells; [2]): 1.98 ±0.17 %AA/10^5 cells | Cell surface blocked (LNCaP cells; [2]): 0.09 ± 0.01 %AA/10^5 cells | Internalized blocked (LNCaP cells; [2]): 0.78 ± 0.11 %AA/10^5 cells | excretion route [1]: excreted mainly through the liver
